# Results: ChEMBL document CHEMBL5696439 (Cancer Res, 2010)
# Calls of active or inactive are those of the source. The calls are words filed in the database; no cut-off is given here.
# How the values were obtained:
# [1] = molecular target: Tyrosine-protein kinase receptor TYRO3 (Homo sapiens) (UniProt Q06418); assay: Inhibition of recombinant human GST-tagged TYRO3 (451-890 residues) expressed in insect cells at 2 uM using […] as substrate measured after 1 hr by Z'-LYTE assay relative to control; conditions: Insect cell
# [2] = molecular target: RAC-beta serine/threonine-protein kinase (Homo sapiens) (UniProt P31751); assay: Inhibition of recombinant human full-length His-tagged AKT2 expressed in insect cells at 2 uM using Ser/Thr 06 as substrate measured after 1 hr by Z'-LYTE assay relative to control; conditions: Insect cell
# PC3MM2 [3] = assay: Antitumor activity against human PC3MM2 cells xenografted in female nude mouse model assessed as suppression in P-S6K at T389 level at 50 mg/kg, iv administered once a week and measured at least 8 hrs by immunoblot analysis; type: functional, organism-based
# [4] = molecular target: Phosphatidylinositol 4,5-bisphosphate 3-kinase catalytic subunit gamma isoform (Homo sapiens, UniProt P48736); assay: Inhibition of PI3Kgamma (unknown origin) using PIP2 as substrate measured after 15 to 30 mins by fluorescence polarization assay
# [5] = molecular target: Tyrosine-protein kinase JAK2 (Homo sapiens) (UniProt O60674); assay: Inhibition of recombinant human GST-tagged JAK2 JH1 JH2 domains (532-1132 residues) expressed in insect cells at 2 uM using Tyr 06 as substrate measured after 1 hr by Z'-LYTE assay relative to control; conditions: Insect cell
# [6] = molecular target: Eukaryotic elongation factor 2 kinase (Homo sapiens) (UniProt O00418); assay: Inhibition of recombinant human full-length GST-tagged EEF2K expressed in E. coli at 2 uM using Ser/Thr 24 as substrate measured after 1 hr by Z'-LYTE assay relative to control
# PC3MM2 [7] = assay: Induction of apoptosis in human PC3MM2 cells assessed as reduction in S phase at 1 micromol/L incubated for 24 hrs by FACS analysis; type: functional, cell-based; conditions: dose 1.0 µmol/L
# [8] = molecular target: Mitogen-activated protein kinase kinase kinase kinase 2 (Homo sapiens) (UniProt Q12851); assay: Inhibition of recombinant human full-length His-tagged MAP4K2 expressed in insect cells at 2 uM using Ser/Thr 07 as substrate measured after 1 hr by Z'-LYTE assay relative to control; conditions: Insect cell
# A549 [9] = assay: Antitumor activity against human A549 cells xenografted in female nude mouse model assessed as substantial regression in large tumor growth at 50 mg/kg, po qd administered as 5 days on/2 days off regimen for 4 cycles; type: functional, organism-based; conditions: time 28.0 day
# MDA-MB-361 [10] = assay: Induction of apoptosis in human MDA-MB-361 cells assessed as PARP cleavage at 0.05 to 5 micromol/L incubated for 48 hrs by Western blot analysis; type: functional, cell-based; conditions: dose 0.05-5 µmol/L
# [11] = molecular target: Mitogen-activated protein kinase kinase kinase kinase 5 (Homo sapiens) (UniProt Q9Y4K4); assay: Inhibition of recombinant human full length GST-tagged MAP4K5 expressed in insect cells at 2 uM using Ser/Thr 07 as substrate measured after 1 hr by Z'-LYTE assay relative to control; conditions: Insect cell
# [12] = molecular target: Vascular endothelial growth factor receptor 2 (Homo sapiens) (UniProt P35968); assay: Inhibition of recombinant human His-tagged KDR (789-1356 residues) expressed in insect cells at 2 uM using […] as substrate measured after 1 hr by Z'-LYTE assay relative to control; conditions: Insect cell
# [13] = molecular target: Tyrosine-protein kinase receptor UFO (Homo sapiens) (UniProt P30530); assay: Inhibition of recombinant human His-tagged AXL (473 to end residues) expressed in insect cells at 2 uM using Tyr 06 as substrate measured after 1 hr by Z'-LYTE assay relative to control; conditions: Insect cell
# [14] = molecular target: Death-associated protein kinase 3 (Homo sapiens) (UniProt O43293); assay: Inhibition of recombinant human full-length GST-tagged DAPK3 expressed in insect cells at 2 uM using Ser/Thr 13 as substrate measured after 1 hr by Z'-LYTE assay relative to control; conditions: Insect cell
# [15] = molecular target: Serine/threonine-protein kinase mTOR (Homo sapiens, UniProt P42345); conditions: HEK293, dose 0.1-1 nM, time 20.0 min
# [16] = molecular target: Mitogen-activated protein kinase 3 (Homo sapiens) (UniProt P27361); assay: Inhibition of recombinant human full length GST-tagged MAPK3 expressed in E. coli at 2 uM using Ser/Thr 03 as substrate measured after 1 hr by Z'-LYTE assay relative to control
# [17] = molecular target: Receptor-type tyrosine-protein kinase FLT3 (Homo sapiens) (UniProt P36888); assay: Inhibition of recombinant human His-tagged FLT3 (564-958 residues) expressed in insect cells at 2 uM using Tyr 02 as substrate measured after 1 hr by Z'-LYTE assay relative to control; conditions: Insect cell
# [18] = molecular target: Tyrosine-protein kinase Yes (Homo sapiens) (UniProt P07947); assay: Inhibition of recombinant human full length GST-tagged YES1 expressed in insect cells at 2 uM using Ser/Thr 07 as substrate measured after 1 hr by Z'-LYTE assay relative to control; conditions: Insect cell
# MDA-MB-361 [19] = assay: Antitumor activity against human MDA-MB-361 cells xenografted in female nude mouse model assessed as P-AKT at T308 level at 6 to 12 mg/kg, po qd administered as 5 days on/2 days off regimen for 4 cycles by immunoblot analysis; type: functional, organism-based; conditions: dose 6-12 mg/kg, time 28.0 day
# [20] = molecular target: Tyrosine-protein kinase Mer (Homo sapiens) (UniProt Q12866); assay: Inhibition of recombinant human GST-tagged MERTK (578-872 residues) expressed in insect cells at 2 uM using Tyr 02 as substrate measured after 1 hr by Z'-LYTE assay relative to control; conditions: Insect cell
# A549 [21] = assay: Antitumor activity against human A549 cells xenografted in female nude mouse model assessed as suppression in tumor growth at 25 mg/kg, po qd administered as 5 days on/2 days off regimen for 4 cycles relative to control; type: functional; conditions: time 28 day
# U-87 MG = assay: Antitumor activity against human U-87MG cells assessed as lactate production incubated for 24 hrs; type: functional, cell-based; conditions: U-87MG ATCC, dose 0.01-10 µmol/L
# MDA-MB-361 [22] = assay: Induction of apoptosis in human MDA-MB-361 cells assessed as increase in G1 phase at 5 micromol/L incubated for 24 hrs by FACS analysis relative to control; type: functional; conditions: dose 5 µmol/L, at 5 µM
# LNCaP = assay: Antiproliferative activity against human LNCaP cells assessed as cell growth inhibition at 10 micromol/L incubated for 3 days by MTS assay relative to control; type: functional; conditions: 72 h, dose 10 µmol/L, time 3 day
# [23] = molecular target: Tyrosine-protein kinase Fgr (Homo sapiens) (UniProt P09769); assay: Inhibition of recombinant human full-length His-tagged FGR expressed in insect cells at 2 uM using Tyr 02 as substrate measured after 1 hr by Z'-LYTE assay relative to control; conditions: Insect cell
# [24] = Inhibition of recombinant human GST-tagged ROCK1 (1-552 residues) expressed in insect cells at 2 uM using Ser/Thr 13 as substrate measured after 1 hr by Z'-LYTE assay relative to control; conditions: Insect cell, condition cancer
# Mitogen-activated protein kinase 3 (Homo sapiens), sequence (P27361 whole entry, the tested form may be a part): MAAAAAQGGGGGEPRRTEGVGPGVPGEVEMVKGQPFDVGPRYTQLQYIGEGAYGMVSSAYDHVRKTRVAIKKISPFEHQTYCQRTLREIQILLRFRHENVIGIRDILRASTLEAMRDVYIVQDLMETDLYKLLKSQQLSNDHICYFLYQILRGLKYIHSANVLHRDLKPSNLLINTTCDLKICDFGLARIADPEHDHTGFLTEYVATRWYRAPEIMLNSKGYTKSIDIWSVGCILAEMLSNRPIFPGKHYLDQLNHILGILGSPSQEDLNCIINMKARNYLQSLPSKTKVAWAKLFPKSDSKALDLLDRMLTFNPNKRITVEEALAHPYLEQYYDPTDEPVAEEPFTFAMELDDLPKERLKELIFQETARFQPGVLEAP
# Mitogen-activated protein kinase kinase kinase kinase 5 (Homo sapiens), sequence (Q9Y4K4 whole entry, looked up, the tested form may be a part): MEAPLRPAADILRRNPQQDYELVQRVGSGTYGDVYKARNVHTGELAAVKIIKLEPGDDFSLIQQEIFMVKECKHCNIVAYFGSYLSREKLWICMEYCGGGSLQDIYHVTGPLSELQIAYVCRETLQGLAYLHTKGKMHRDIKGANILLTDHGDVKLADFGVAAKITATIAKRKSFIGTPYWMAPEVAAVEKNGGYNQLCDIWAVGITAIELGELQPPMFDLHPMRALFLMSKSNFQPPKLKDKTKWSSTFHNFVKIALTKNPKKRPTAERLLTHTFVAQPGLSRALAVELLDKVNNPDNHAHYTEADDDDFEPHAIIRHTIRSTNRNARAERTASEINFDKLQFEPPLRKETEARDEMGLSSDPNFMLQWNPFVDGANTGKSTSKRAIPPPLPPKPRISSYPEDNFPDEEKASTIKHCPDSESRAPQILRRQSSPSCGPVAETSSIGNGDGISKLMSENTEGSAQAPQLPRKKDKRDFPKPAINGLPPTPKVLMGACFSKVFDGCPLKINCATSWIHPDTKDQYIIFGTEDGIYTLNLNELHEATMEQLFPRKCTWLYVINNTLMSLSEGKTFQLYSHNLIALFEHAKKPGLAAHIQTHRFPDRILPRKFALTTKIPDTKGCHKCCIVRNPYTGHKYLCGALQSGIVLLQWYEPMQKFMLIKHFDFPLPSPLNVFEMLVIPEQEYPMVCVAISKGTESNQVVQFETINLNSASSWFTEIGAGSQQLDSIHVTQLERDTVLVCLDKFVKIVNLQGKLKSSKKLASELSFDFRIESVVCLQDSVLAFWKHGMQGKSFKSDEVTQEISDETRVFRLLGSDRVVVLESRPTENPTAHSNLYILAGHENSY
# Mitogen-activated protein kinase kinase kinase kinase 2 (Homo sapiens), sequence (Q12851 whole entry): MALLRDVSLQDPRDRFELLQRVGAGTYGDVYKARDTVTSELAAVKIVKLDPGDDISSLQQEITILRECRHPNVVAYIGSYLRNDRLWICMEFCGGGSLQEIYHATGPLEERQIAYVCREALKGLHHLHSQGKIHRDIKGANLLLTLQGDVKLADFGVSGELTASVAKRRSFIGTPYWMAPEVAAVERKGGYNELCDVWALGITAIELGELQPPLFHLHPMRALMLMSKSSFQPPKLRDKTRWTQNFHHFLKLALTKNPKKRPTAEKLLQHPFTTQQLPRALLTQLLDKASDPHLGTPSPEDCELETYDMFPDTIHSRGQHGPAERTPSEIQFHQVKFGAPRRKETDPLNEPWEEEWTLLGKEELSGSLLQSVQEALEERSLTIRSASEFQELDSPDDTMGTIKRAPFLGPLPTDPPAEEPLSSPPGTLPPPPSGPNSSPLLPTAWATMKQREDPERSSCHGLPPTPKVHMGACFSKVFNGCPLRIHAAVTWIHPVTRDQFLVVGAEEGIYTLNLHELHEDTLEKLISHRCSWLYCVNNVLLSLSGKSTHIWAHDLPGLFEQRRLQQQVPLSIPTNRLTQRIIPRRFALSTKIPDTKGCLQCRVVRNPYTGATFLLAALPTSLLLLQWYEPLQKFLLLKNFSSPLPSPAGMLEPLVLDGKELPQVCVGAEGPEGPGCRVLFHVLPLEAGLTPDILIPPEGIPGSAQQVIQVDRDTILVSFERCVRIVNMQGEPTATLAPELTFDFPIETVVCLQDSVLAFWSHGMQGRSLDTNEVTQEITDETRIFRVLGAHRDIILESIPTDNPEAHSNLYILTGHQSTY
# Tyrosine-protein kinase JAK2 (Homo sapiens), sequence (O60674 whole entry, the tested form may be a part): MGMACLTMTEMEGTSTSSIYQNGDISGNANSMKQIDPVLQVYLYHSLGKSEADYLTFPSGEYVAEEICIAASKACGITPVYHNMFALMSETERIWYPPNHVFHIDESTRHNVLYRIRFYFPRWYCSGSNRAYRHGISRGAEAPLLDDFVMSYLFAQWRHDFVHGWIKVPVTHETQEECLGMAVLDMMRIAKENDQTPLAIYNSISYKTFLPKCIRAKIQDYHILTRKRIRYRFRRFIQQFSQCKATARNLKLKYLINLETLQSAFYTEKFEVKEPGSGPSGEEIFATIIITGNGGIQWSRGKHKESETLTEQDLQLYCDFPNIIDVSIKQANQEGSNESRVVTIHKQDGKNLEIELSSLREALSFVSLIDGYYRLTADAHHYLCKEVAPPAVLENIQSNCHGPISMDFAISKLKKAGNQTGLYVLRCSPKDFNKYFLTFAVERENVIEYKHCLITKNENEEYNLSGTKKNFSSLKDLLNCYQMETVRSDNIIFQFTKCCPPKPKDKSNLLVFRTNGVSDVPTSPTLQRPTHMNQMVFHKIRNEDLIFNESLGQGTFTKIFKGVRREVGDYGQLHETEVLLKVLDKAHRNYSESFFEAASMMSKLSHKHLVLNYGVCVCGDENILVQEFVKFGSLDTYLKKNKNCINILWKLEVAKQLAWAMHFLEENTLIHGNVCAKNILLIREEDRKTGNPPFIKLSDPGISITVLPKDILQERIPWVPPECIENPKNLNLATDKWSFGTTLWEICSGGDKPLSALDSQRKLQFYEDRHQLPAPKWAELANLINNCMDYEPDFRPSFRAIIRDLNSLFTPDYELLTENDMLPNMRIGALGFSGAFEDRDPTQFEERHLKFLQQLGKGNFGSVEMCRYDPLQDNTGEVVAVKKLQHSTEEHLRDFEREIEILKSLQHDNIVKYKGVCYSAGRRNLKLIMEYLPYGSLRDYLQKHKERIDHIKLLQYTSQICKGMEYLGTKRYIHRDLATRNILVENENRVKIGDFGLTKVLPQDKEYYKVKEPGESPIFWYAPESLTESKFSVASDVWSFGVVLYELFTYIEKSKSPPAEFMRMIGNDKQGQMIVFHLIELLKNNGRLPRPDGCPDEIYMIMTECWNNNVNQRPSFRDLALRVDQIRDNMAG
# Vascular endothelial growth factor receptor 2 (Homo sapiens), sequence (P35968 whole entry, the tested form may be a part): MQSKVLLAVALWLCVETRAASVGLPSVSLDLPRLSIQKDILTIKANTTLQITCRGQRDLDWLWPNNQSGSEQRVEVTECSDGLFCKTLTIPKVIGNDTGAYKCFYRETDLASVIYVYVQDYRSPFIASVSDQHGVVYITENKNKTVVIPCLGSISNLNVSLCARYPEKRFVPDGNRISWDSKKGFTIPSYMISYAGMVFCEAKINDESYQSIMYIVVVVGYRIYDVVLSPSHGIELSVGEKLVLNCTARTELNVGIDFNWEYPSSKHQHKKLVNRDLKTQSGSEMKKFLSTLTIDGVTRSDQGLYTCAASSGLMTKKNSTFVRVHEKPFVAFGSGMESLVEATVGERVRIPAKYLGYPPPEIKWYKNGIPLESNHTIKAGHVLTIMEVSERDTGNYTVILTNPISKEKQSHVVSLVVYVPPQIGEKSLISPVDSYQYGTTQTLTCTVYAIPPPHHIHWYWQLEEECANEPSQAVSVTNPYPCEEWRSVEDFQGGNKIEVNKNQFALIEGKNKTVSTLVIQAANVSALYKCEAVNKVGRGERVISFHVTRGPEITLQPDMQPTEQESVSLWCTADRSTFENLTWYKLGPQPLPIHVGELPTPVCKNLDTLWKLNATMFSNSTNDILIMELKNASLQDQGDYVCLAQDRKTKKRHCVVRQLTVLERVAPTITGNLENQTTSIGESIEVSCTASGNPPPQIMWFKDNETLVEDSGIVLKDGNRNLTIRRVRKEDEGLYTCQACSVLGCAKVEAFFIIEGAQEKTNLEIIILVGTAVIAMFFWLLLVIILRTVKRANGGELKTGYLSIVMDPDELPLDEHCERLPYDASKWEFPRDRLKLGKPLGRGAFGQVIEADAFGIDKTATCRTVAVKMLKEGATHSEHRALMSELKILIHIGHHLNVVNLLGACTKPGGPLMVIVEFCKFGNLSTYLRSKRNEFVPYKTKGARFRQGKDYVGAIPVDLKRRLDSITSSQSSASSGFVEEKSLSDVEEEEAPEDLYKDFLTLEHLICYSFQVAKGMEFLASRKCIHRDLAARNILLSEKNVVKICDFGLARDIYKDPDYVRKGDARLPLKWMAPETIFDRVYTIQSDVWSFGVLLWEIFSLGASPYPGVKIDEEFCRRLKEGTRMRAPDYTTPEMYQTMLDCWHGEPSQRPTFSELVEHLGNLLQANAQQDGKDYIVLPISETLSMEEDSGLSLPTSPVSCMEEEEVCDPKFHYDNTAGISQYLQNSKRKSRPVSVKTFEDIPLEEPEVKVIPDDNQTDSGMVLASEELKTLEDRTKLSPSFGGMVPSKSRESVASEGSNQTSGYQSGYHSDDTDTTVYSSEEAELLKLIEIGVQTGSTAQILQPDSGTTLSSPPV
# Death-associated protein kinase 3 (Homo sapiens), sequence (O43293 whole entry, looked up): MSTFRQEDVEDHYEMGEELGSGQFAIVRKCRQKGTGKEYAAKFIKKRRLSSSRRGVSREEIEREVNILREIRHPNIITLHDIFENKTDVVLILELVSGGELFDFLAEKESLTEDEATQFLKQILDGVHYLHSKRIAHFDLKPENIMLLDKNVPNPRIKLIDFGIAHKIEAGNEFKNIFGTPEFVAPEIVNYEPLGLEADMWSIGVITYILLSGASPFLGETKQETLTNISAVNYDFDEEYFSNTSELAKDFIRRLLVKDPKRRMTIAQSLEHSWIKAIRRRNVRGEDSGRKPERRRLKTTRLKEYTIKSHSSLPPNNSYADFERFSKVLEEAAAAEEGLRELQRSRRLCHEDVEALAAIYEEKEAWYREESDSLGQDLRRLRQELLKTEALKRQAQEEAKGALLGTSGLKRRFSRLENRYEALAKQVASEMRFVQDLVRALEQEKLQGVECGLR
smiles,measurement,setting,value
CNC(=O)Nc1ccc(-c2nc(N3CC4CCC(C3)O4)c3cnn(C4CCC5(CC4)OCCO5)c3n2)cc1,inhibition,[1],9%
same,inhibition,[2],5%
same,Activity,PC3MM2 [3],Active
same,IC50,[4],> 10 µM
same,inhibition,[5],2%
same,inhibition,[6],1%
same,Activity,PC3MM2 [7],Active
same,inhibition,[8],3%
same,Activity,A549 [9],Active
same,Activity,MDA-MB-361 [10],Active
same,inhibition,[11],19%
same,inhibition,[12],7%
same,inhibition,[13],2%
same,inhibition,[14],2%
same,inhibition,[15],Active
same,inhibition,[16],1%
same,inhibition,[17],17%
same,inhibition,[18],2%
same,Activity,MDA-MB-361 [19],inactive
same,inhibition,[20],1%
same,Activity,A549 [21],100%
same,Activity,U-87 MG,Dose-Dependent Effect
same,Activity,MDA-MB-361 [22],12%
same,inhibition at 10 µM,LNCaP,100%
same,inhibition,[23],1%
same,inhibition at 2 µM,[24],5%
